Patent US20240376097A1, “BCL-2 Inhibitor” (BeiGene Ltd., priority 2020, published 2024)
pIC50: −log10 of the molar value. Like-named read-outs stand apart in the source and are kept apart here.

Experiments:
[1] = target: Recombinant human Bcl-2 protein (Homo sapiens (Human), UniProt P10415); assay: Bcl-2 TR-FRET Assay; format: binding
Experimental: Biological Example: Bcl-2 TR-FRET Assay
Compounds disclosed herein were tested for blocking of Bcl-2 protein with its ligand in an assay based on Time-Resolved Fluorescence Resonance Energy Transfer (TR-FRET) methodology. Recombinant human 0.05 nM Bcl-2 protein was pre-incubated with a serial dilution of compounds disclosed herein (top final concentration is 1 uM or 0.1 uM or 0.02 uM or 0.01 uM, 10 points) at room temperature for 0.5 hour in an assay buffer containing 20 mM potassium phosphate buffer, pH 7.5, 50 mM NaCl. 1 mM EDTA, 0.05% Tween-20, 0.01% BSA. Then the FITC labeled Bak peptide Ac-GQVGRQLAIIGDK(FITC)INR-amide (0.5 nM) and MAb Anti 6His Tb cryptate Gold were added to plate and further incubated at room temperature for 1 hour. The TR-FRET signals (337 nm-520 nm-490 nm) were read on BMG PHERAstar FSX instrument. The inhibition percentage of Bcl-2 interaction with its ligand in presence of increasing concentrations of compounds was calculated based on the TR-FRET signals. The IC50 for each compound was derived from fitting the data to the four-parameter logistic equation by Graphpad Prism software or Dotmatics.

[2] = target: recombinant human Bcl-2-G101V protein (Homo sapiens (Human), UniProt P10415, G101V); assay: Bcl-2-G101V TR-FRET Assay; format: binding; conditions: Bcl-2 G101V mutant, TR-FRET; read-out: Biochemical assay (IC50, nM) Bcl-2 G101V
Experimental: (§1) Biological Example: Bcl-2-G101V TR-FRET Assay
(§2) […]. The TR-FRET signals (ex337 nm, em490 nm/520 nm) were read on BMG PHERAstar FSX instrument. The inhibition percentage of Bcl-2-G101V interaction with its ligand in presence of increasing concentrations of compounds was calculated based on the ratio of fluorescence at 490 nm to that at 520 nm. The IC50 for each compound was derived from fitting the data to the four-parameter logistic equation by Graphpad Prism software or Dotmatics.

[3] = system: recombinant human Bcl-2-G101V protein; assay: Bcl-2-G101V TR-FRET Assay; format: binding; conditions: ratio of biochemical IC50 Bcl-2 G101V / Bcl-2 WT
Experimental: as §1, §2

[4] = target: recombinant human Bcl-2 D103Y protein (Homo sapiens (Human), UniProt P10415, D103Y); assay: Bcl-2-D103Y Biochemical Assay (TR-FRET); format: binding; conditions: for pIC50: TR-FRET, FITC labeled Bak peptide; for Ratio of Bcl-2 D103Y/Bcl-2 WT: ratio of IC50
Experimental: Biological Example: Bcl-2-D103Y Biochemical Assay
as §2, with “Bcl-2 D103Y” for “Bcl-2-G101V”, “by” for “by Graphpad Prism software or”

[5] = system: RS4;11 (BCL-2 dependent acute lymphoblastic leukemia cell line); assay: RS4;11 Cell Proliferation Assay; format: cell-based; conditions: Homo sapiens, RS4-11, RS4;11 cells, read-out: Cellular proliferation assay (IC50, nM) RS4
Experimental: Biological Example: RS4;11 Cell Proliferation Assay
The BCL-2 dependent acute lymphoblastic leukemia (ALL) cell line, RS4;11, was used to study the cellular potency of BCL-2 inhibitors. The cells (ATCC, CRL-1873) were cultured in RPMI-1640 complete medium (RPMI-1640 medium, HEPES (Gibco, 22400-105) supplemented with 10% fetal bovine serum (FBS) (Gibco, 10099-1441), 100 unit/ml penicillin and 100 μg/ml streptomycin (Gibco, 15140122)) and maintained in a humidified chamber at 37° C. containing 5% CO2. Each compound was serially diluted with 1 μM as the maximum concentration. To test the apoptotic effect of the compounds, the cells were seeded at 50,000 in 180 μl per well in 96-well plates and treated with 10-point dilution series of each compound for 48 hrs at 37° C. Cell viability was assessed after the treatment using CellTiter-GLO luminescent assay (Promega) according to the manufacturer's recommendations. Briefly, 30 μl of CellTiter-GLO reagent was added into 200 μl of cell culture. Mixture was agitated on an orbital shaker for 5 min to ensure cell lysis followed by 7 min incubation at room temperature to allow development and stabilization of luminescent signals, which corresponded to the quantity of ATP and thus the quantity of metabolically active cells. Luminescent signals were measured using PHERAstar FS reader (BMG). Mean IC50 values were determined with GraphPad Prism software.

[6] = Bcl-2 wild type, TR-FRET, read-out: Biochemical assay (IC50, nM) Bcl-2 WT
[7] = wild type Bcl-2, unit inferred, read-out: Bcl-2 WT

Structure (SMILES) | IC50 [1, 6] [nM] | IC50 [1, 7] [nM] | IC50 [2] [nM] | Ratio of Bcl-2 G101V/WT [3] | pIC50 [4] | Ratio of Bcl-2 D103Y/Bcl-2 WT [4] | IC50 [5] [nM]
COc1cc(CN2CCN(C3CC4(CCN(c5ccc(C(=O)NS(=O)(=O)c6ccc(NC[C@H]7CC[C@](C)(O)CC7)c([N+](=O)[O-])c6)c(Oc6cnc7[nH]ccc7c6)c5)CC4)C3)[C@H](c3ccccc3C(C)C)C2)cc2c1OCC2(C)C [Example 286, 2-((1H-pyrrolo[2,3-b]pyridin-5-yl)oxy)-N-((4-((((1r,4r)-4-hydroxy-4-methylcyclohexyl)methyl)amino)-3-nitrophenyl)sulfonyl)-4-(2-((R)-2-(2-isopropylphenyl)-4-((7-methoxy-3,3-dimethyl-2,3-dihydrobenzofuran-5-yl)methyl)piperazin-1-yl)-7-azaspiro[3.5]nonan-7-yl)benzamide] | 0.1 | 0.1 | 0.48 | 4.8 | 9.72 | 1.9 | –
COc1ccc(CN2CCN(C3CC4(CCN(c5ccc(C(=O)NS(=O)(=O)c6ccc(NCC7(F)CCC(C)(O)CC7)c([N+](=O)[O-])c6)c(Oc6cnc7[nH]ccc7c6)c5)CC4)C3)[C@H](c3ccccc3C(C)C)C2)cc1 (stereo partly drawn) [Example 226, (R)-2-((1H-pyrrolo[2,3-b]pyridin-5-yl)oxy)-N-((4-(((1-fluoro-4-hydroxy-4-methylcyclohexyl)methyl)amino)-3-nitrophenyl)sulfonyl)-4-(2-(2-(2-isopropylphenyl)-4-(4-methoxybenzyl)piperazin-1-yl)-7-azaspiro[3.5]nonan-7-yl) benzamide] | 0.17 | 0.17 | 0.64 | 3.9 | 9.80 | 1 | –
COc1cc(CN2CCN(C3CC4(CCN(c5ccc(C(=O)NS(=O)(=O)c6ccc(NC[C@H]7CC[C@](C)(O)CC7)c([N+](=O)[O-])c6)c(Oc6cnc7[nH]ccc7c6)c5)CC4)C3)[C@H](c3ccccc3C(C)C)C2)ccc1C1CCCC1 [Example 294, 2-((1H-pyrrolo[2,3-b]pyridin-5-yl)oxy)-4-(2-((R)-4-(4-cyclopentyl-3-methoxybenzyl)-2-(2-isopropylphenyl)piperazin-1-yl)-7-azaspiro[3.5]nonan-7-yl)-N-((4-((((1r,4r)-4-hydroxy-4-methylcyclohexyl)methyl)amino)-3-nitrophenyl)sulfonyl)benzamide] | 3.2 | – | 10 | 3.2 | – | – | –
CC(C)c1ccccc1C1CN(c2ccccc2)CCN1C1CC2(CCN(c3ccc(C(=O)NS(=O)(=O)c4ccc(NC[C@H]5CC[C@](C)(O)CC5)c([N+](=O)[O-])c4)c(Oc4cnc5[nH]ccc5c4)c3)CC2)C1 (stereo partly drawn) [Example 65, 2-((1H-pyrrolo[2,3-b]pyridin-5-yl)oxy)-N-((4-((((1r,4r)-4-hydroxy-4-methylcyclohexyl)methyl)amino)-3-nitrophenyl)sulfonyl)-4-(2-(2-(2-isopropylphenyl)-4-phenylpiperazin-1-yl)-7-azaspiro [3.5]nonan-7-yl)benzamide] | 0.86 | – | 54 | 62.8 | – | – | 5.9
CNc1ccc(CN2CCN(C3CC4(C3)CN(c3ccc(C(=O)NS(=O)(=O)c5ccc(NC[C@H]6CC[C@](C)(O)CC6)c([N+](=O)[O-])c5)c(Oc5cnc6[nH]cc(F)c6c5)c3)C4)[C@H](c3ccccc3C(C)C)C2)cc1OC [Example 358, 2-((3-fluoro-1H-pyrrolo[2,3-b]pyridin-5-yl)oxy)-N-((4-((((1r,4r)-4-hydroxy-4-methylcyclohexyl)methyl)amino)-3-nitrophenyl)sulfonyl)-4-(6-((R)-2-(2-isopropylphenyl)-4-(3-methoxy-4-(methylamino)benzyl)piperazin-1-yl)-2-azaspiro[3.3]heptan-2-yl) benzamide] | 0.1 | 0.1 | 0.24 | 2.4 | 9.96 | 1.1 | –
CC(C)c1ccccc1C1CN(Cc2ccc(OC(F)(F)F)cc2)CCN1C1CC2(CCN(c3ccc(C(=O)NS(=O)(=O)c4ccc(NC[C@H]5CC[C@](C)(O)CC5)c([N+](=O)[O-])c4)c(Oc4cnc5[nH]ccc5c4)c3)CC2)C1 (stereo partly drawn) [Example 39, 2-((1H-pyrrolo[2,3-b]pyridin-5-yl)oxy)-N-((4-((((1r,4r)-4-hydroxy-4-methylcyclohexyl)methyl)amino)-3-nitrophenyl)sulfonyl)-4-(2-(2-(2-isopropylphenyl)-4-(4-(trifluoromethoxy)benzyl)piperazin-1-yl)-7-azaspiro[3.5]nonan-7-yl)benzamide] | 1.1 | 1.1 | 6.7 | 6.1 | 8.42 | 3.5 | –
COc1ccc(CN2CCN(C3CC4(CCN(c5ccc(C(=O)NS(=O)(=O)c6ccc(NC[C@H]7CC[C@](C)(O)CC7)c([N+](=O)[O-])c6)c(Oc6cnc7[nH]ccc7c6)c5)CC4)C3)C(c3ccccc3C3CCCC3)C2)cc1 (stereo partly drawn) [Example 36, 2-((1H-pyrrolo[2,3-b]pyridin-5-yl)oxy)-4-(2-(2-(2-cyclopentylphenyl)-4-(4-methoxybenzyl)piperazin-1-yl)-7-azaspiro[3.5]nonan-7-yl)-N-((4-((((1r,4r)-4-hydroxy-4-methylcyclohexyl)methyl)amino)-3-nitrophenyl)sulfonyl)benzamide] | 0.58 | – | 16 | 27.6 | – | – | –
CC(C)c1ccccc1C1CN(C2CCOC2)CCN1C1CC2(CCN(c3ccc(C(=O)NS(=O)(=O)c4ccc(NC[C@H]5CC[C@](C)(O)CC5)c([N+](=O)[O-])c4)c(Oc4cnc5[nH]ccc5c4)c3)CC2)C1 (stereo partly drawn) [Example 8, 2-((1H-pyrrolo[2,3-b]pyridin-5-yl)oxy)-N-((4-((((1r,4r)-4-hydroxy-4-methylcyclohexyl)methyl)amino)-3-nitrophenyl)sulfonyl)-4-(2-(2-(2-isopropylphenyl)-4-(tetrahydrofuran-3-yl)piperazin-1-yl)-7-azaspiro[3.5]nonan-7-yl)benzamide] | 0.02 | – | 0.32 | 16.0 | – | – | –
CC(C)c1ccccc1[C@@H]1CN(Cc2ccc(C3CCOC3)cc2)CCN1C1CC2(C1)CN(c1ccc(C(=O)NS(=O)(=O)c3ccc(NCC4CCC(C)(O)CC4)c([N+](=O)[O-])c3)c(Oc3cnc4[nH]cc(F)c4c3)c1)C2 (stereo partly drawn) [Example 371, 2-((3-fluoro-1H-pyrrolo[2,3-b]pyridin-5-yl)oxy)-N-((4-((((1r,4r)-4-hydroxy-4-methylcyclohexyl)methyl)amino)-3-nitrophenyl)sulfonyl)-4-(6-((2R)-2-(2-isopropylphenyl)-4-(4-(tetrahydrofuran-3-yl)benzyl)piperazin-1-yl)-2-azaspiro[3.3]heptan-2-yl)benzamide] | 0.12 | – | 0.32 | 2.7 | 9.51 | 2.6 | –
